For one experiment, the target named is T1, human PPARγ (Homo sapiens, UniProt P37231).
T1 construct: expressed in transfected cells; host or cells: Cos-7 cells (ATCC, CRL-1651)
T1 sequence (P37231 238-503 limits assumed): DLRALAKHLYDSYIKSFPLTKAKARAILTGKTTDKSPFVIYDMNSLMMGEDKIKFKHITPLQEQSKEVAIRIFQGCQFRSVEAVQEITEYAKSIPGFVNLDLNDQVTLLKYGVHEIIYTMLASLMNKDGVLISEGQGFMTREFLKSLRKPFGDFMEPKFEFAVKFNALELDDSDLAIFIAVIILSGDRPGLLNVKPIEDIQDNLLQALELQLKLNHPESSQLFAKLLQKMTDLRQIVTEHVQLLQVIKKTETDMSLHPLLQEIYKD
The experiment is described as follows: Reporter gene transactivation, hPPAR-GAL4 gamma. In kind it is cell-based. To be noted: transfected Cos-7 cells, Gal-4 luciferase reporter, 24 hours treatment.

The test system of experiment [1] is insulin-resistant male rat (Ico: ZUCKER-fa/fa). The experiment is described as follows: Normalization of metabolic parameters (cholesterol, plasma triglycerides) in insulin-resistant rat. It counts as in vivo. To be noted: oral route, once per day for four days, Zucker fa/fa rat unfed 16-18 hours; for change in vivo at 2.5 mg/kg / change in vivo at 10 mg/kg: 96 h. As for the experimental part:
Normalization of metabolic parameters (cholesterol, plasma triglycerides) in an insulin-resistant male rat (Ico: ZUCKER-fa/fa), unfed for 16-18 hours, after treatment by oral route, once per day for four days, with the compounds to be evaluated or their administration vehicle.
These metabolic parameters are measured by spectrophotometry at the beginning and the end of each animal's treatment.

In the next experiment the target is T2, human PPARα (Homo sapiens, UniProt Q07869).
T2 construct: expressed in transfected cells; host or cells: Cos-7 cells (ATCC, CRL-1651)
T2 sequence (Q07869 239-466 limits assumed): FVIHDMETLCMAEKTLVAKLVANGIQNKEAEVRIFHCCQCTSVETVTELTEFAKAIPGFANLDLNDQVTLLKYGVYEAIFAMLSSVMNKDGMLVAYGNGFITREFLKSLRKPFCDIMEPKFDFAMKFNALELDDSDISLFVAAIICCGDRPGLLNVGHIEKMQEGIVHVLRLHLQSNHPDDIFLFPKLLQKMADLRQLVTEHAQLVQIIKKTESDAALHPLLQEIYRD
Description: Reporter gene transactivation, hPPAR-GAL4 alpha. In kind it is cell-based. To be noted: transfected Cos-7 cells, Gal-4 luciferase reporter, 24 hours treatment.

The mark [2] stands for this setting: at 2.5 mg/kg, read-out: Plasma cholesterol.
Setting [3] is: at 10 mg/kg, read-out: Plasma cholesterol.
[4] abbreviates: at 10 mg/kg, read-out: Plasma triglycerides.
The mark [5] stands for this setting: at 2.5 mg/kg, read-out: Plasma triglycerides.

Like-named read-outs stand apart in the source and are kept apart here.

`CCCCn1c(=O)c(OCCCCCc2cccc(OC(C)(C)C(=O)OCC)c2)nn(C)c1=O` [Example 11, Ethyl 2-{3-[5-(4-butyl-2-methyl-3,5-dioxo-2,3,4,5-tetrahydro-[1,2,4]triazin-6-yloxy)-pentyl]-phenoxy}-2-methyl-propionate]: the results for the EC50 on human PPARγ and at human PPARα were 1000 to 3000 nM and 300 to 1000 nM, respectively. The change in vivo at 2.5 mg/kg in experiment [1] (setting [2]) was -25%. Besides, the change in vivo at 10 mg/kg in experiment [1] (setting [3]) was -25%; in experiment [1] (setting [4]) it was -37%. The Plasma triglycerides entry in experiment [1] (at 2.5 mg/kg) was “inactive at 2.5”.

In the case of `CCCCCCCn1nc(OCCCCCc2cccc(OC(C)(C)C(=O)OCC)c2)c(=O)n(CCCC)c1=O` [Example 15, Ethyl 2-{3-[5-(4-butyl-2-heptyl-3,5-dioxo-2,3,4,5-tetrahydro-[1,2,4]triazin-6-yloxy)-pentyl]-phenoxy}-2-methyl-propionate], the results for the EC50 at human PPARγ and on human PPARα were 100 to 300 nM and 1 to 3 nM, respectively. In addition, the change in vivo at 2.5 mg/kg in experiment [1] (setting [2]) is -4%; in experiment [1] (setting [5]), -22%. For the same compound, the values for the change in vivo at 10 mg/kg in experiment [1] (setting [3]) and in experiment [1] (setting [4]) were -8% and -63%, respectively.

As for `CCOC(=O)C(C)(C)Oc1cccc(CCCCCOc2nn(C)c(=O)n(CCCC(F)(F)F)c2=O)c1` [Example 16, Ethyl 2-methyl-2-(3-{5-[2-methyl-3,5-dioxo-4-(4,4,4-trifluoro-butyl)-2,3,4,5-tetrahydro-[1,2,4]triazin-6-yloxy]-pentyl}-phenoxy)-propionate], the EC50 on human PPARγ was 3000 to 10000 nM; at human PPARα, around 100 nM. Moreover, the change in vivo at 2.5 mg/kg in experiment [1] (setting [2]) was -14%. The change in vivo at 10 mg/kg was -25% in experiment [1] (setting [3]) and -15% in experiment [1] (setting [4]). Further, in experiment [1] (at 2.5 mg/kg), the Plasma triglycerides result was “inactive at 2.5”.

As to `CCCCCCCn1c(=O)c(OCCCCCc2cccc(OC(C)(C)C(=O)OCC)c2)nn(C)c1=O` [Example 17, Ethyl 2-{3-[5-(4-heptyl-2-methyl-3,5-dioxo-2,3,4,5-tetrahydro-[1,2,4]triazin-6-yloxy)-pentyl]-phenoxy}-2-methyl-propionate], the EC50 on human PPARγ is around 300 nM; at human PPARα, 300 to 1000 nM. For the same compound, the change in vivo at 10 mg/kg in experiment [1] (setting [4]) was -37%. Moreover, the Plasma cholesterol result in experiment [1] (at 10 mg/kg) was “active at 10”.

`CCCCCCCn1nc(NCCCOc2ccc(OC(C)(C)C(=O)OCC)cc2)c(=O)n(C)c1=O` [Example 45, Ethyl 2-{4-[3-(2-heptyl-4-methyl-3,5-dioxo-2,3,4,5-tetrahydro-[1,2,4]triazin-6-ylamino)-propoxy]-phenoxy}-2-methyl-propionate]: the figures for the EC50 on human PPARγ and at human PPARα were around 3000 nM and 1000 to 3000 nM, respectively. Also, the change in vivo at 10 mg/kg in experiment [1] (setting [3]) was -16%. Besides, the Plasma triglycerides entry in experiment [1] (at 10 mg/kg) is “inactive at 10”.

As for `CCCCCCCn1c(=O)c(NCCCOc2ccc(OC(C)(C)C(=O)OCC)cc2)nn(C)c1=O` [Example 47, Ethyl 2-{4-[3-(4-heptyl-4-methyl-3,5-dioxo-2,3,4,5-tetrahydro-[1,2,4]triazin-6-ylamino)-propoxy]-phenoxy}-2-methyl-propionate], the EC50 at human PPARγ and at human PPARα was around 300 nM each time. The results for the change in vivo at 10 mg/kg in experiment [1] (setting [3]) and in experiment [1] (setting [4]) were -25% and -45%, respectively.

With `CCOC(=O)C(C)(C)Oc1cccc(CCCNc2nn(C)c(=O)n(CCCC(F)(F)F)c2=O)c1` [Example 65, Ethyl 2-methyl-2-(3-{3-[2-methyl-3,5-dioxo-4-(4,4,4-trifluoro-butyl)-2,3,4,5-tetrahydro-[1,2,4]triazin-6-ylamino]-propyl}-phenoxy)-propionate], the half-maximal effective concentration (EC50) at human PPARγ was above 10000 nM; on human PPARα, 100 to 300 nM. In addition, in experiment [1] (setting [2]), the change in vivo at 2.5 mg/kg is -13%. The figures for the change in vivo at 10 mg/kg in experiment [1] (setting [3]) and in experiment [1] (setting [4]) were -23% and -13%, respectively. In addition, the Plasma triglycerides result in experiment [1] (at 2.5 mg/kg) is “inactive at 2.5”.

With `CCCCCCCn1c(=O)c(NCCCc2cccc(OC(C)(C)C(=O)OCC)c2)nn(CCCC(F)(F)F)c1=O` [Example 68, Ethyl 2-(3-{3-[4-heptyl-3,5-dioxo-2-(4,4,4-trifluoro-butyl)-2,3,4,5-tetrahydro-[1,2,4]triazin-6-ylamino]-propyl}-phenoxy)-2-methyl-propionate], the EC50 lay within 3000 to 10000 nM on human PPARγ and 100 to 300 nM on human PPARα. In experiment [1] (setting [3]), the change in vivo at 10 mg/kg is -21%. The Plasma triglycerides result in experiment [1] (at 10 mg/kg) is recorded as “active at 10 mg/kg”.

With `CCCCCCCn1nc(NCCCc2cccc(OC(C)(C)C(=O)OCC)c2)c(=O)n(Cc2ccccc2)c1=O` [Example 72, Ethyl 2-{3-[3-(4-Benzyl-2-heptyl-3,5-dioxo-2,3,4,5-tetrahydro-[1,2,4]triazin-6-ylamino)-propyl]-phenoxy}-2-methyl-propionate], the EC50 at human PPARγ and at human PPARα was 3000 to 10000 nM throughout. For the same compound, the change in vivo at 10 mg/kg in experiment [1] (setting [3]) is -21%. Moreover, the Plasma triglycerides result in experiment [1] (at 10 mg/kg) was “inactive at 10”.

Consider `CCOC(=O)C(C)(C)Oc1cccc(CCCCNc2nn(CCCC(F)(F)F)c(=O)n(C)c2=O)c1` [Example 74, Ethyl 2-methyl-2-(3-{4-[4-methyl-3,5-dioxo-2-(4,4,4-trifluoro-butyl)-2,3,4,5-tetrahydro-[1,2,4]triazin-6-ylamino]-butyl}-phenoxy)-propionate], for which the EC50 at human PPARγ is 3000 to 10000 nM; on human PPARα, around 1000 nM. Moreover, the change in vivo at 2.5 mg/kg in experiment [1] (setting [2]) is -18%. In addition, the change in vivo at 10 mg/kg in experiment [1] (setting [3]) was -29%; in experiment [1] (setting [4]) it was -26%. The Plasma triglycerides result in experiment [1] (at 2.5 mg/kg) is “inactive at 2.5”.

For the compound `CCCCCCCn1nc(NCCCCc2cccc(OC(C)(C)C(=O)OCC)c2)c(=O)n(C)c1=O` [Example 75, Ethyl 2-{3-[4-(2-heptyl-4-methyl-3,5-dioxo-2,3,4,5-tetrahydro-[1,2,4]triazin-6-ylamino)-butyl]-phenoxy}-2-methyl-propionate], the EC50 at human PPARγ and on human PPARα was 3000 to 10000 nM throughout. The change in vivo at 2.5 mg/kg in experiment [1] (setting [2]) is -19%. Moreover, in experiment [1] (setting [3]), the change in vivo at 10 mg/kg is -13%. Also, the Plasma triglycerides entry in experiment [1] (at 10 mg/kg) is “active at 10”.

As to `CCOC(=O)C(C)(C)Oc1cccc(CCCCNc2nn(C)c(=O)n(CCCC(F)(F)F)c2=O)c1` [Example 77, Ethyl 2-methyl-2-(3-{4-[2-methyl-3,5-dioxo-4-(4,4,4-trifluoro-butyl)-2,3,4,5-tetrahydro-[1,2,4]triazin-6-ylamino]-butyl}-phenoxy)-propionate], the values for the EC50 on human PPARγ and on human PPARα were 3000 to 10000 nM and around 300 nM, respectively. Further, the change in vivo at 2.5 mg/kg in experiment [1] (setting [2]) was -29%. Further, the change in vivo at 10 mg/kg in experiment [1] (setting [3]) was -35%. The Plasma triglycerides entry in experiment [1] (at 10 mg/kg) was “active at 10 mg/kg”.

`Cn1nc(NCCCCc2cccc(OC(C)(C)C(=O)O)c2)c(=O)n(CCCC(F)(F)F)c1=O` [Example 79, 2-Methyl-2-(3-{4-[2-methyl-3,5-dioxo-4-(4,4,4-trifluoro-butyl)-2,3,4,5-tetrahydro-[1,2,4]triazin-6-ylamino]-butyl}-phenoxy)-propionic Acid]: the values for the EC50 on human PPARγ and at human PPARα were 3000 to 10000 nM and around 30 nM, respectively. Besides, the change in vivo at 2.5 mg/kg in experiment [1] (setting [2]) is -32%; in experiment [1] (setting [5]), -55%.

For `CCOC(=O)C(C)(C)Oc1ccc(CCNc2nn(CCCC3CCCCC3)c(=O)n(CCCC(F)(F)F)c2=O)cc1` [Example 105, Ethyl 2-(4-{2-[2-(3-cyclohexyl-propyl)-3,5-dioxo-4-(4,4,4-trifluoro-butyl)-2,3,4,5-tetrahydro-[1,2,4]triazin-6-ylamino]-ethyl}-phenoxy)-2-methyl-propionate], the results for the EC50 at human PPARγ and at human PPARα were around 10000 nM and 1000 to 3000 nM, respectively.

Consider `Cn1c(=O)c(NCCc2ccc(SC(C)(C)C(=O)O)cc2)nn(CCCC(F)(F)F)c1=O` [Example 118, 2-Methyl-2-(4-{2-[4-methyl-3,5-dioxo-2-(4,4,4-trifluoro-butyl)-2,3,4,5-tetrahydro-[1,2,4]triazin-6-ylamino]-ethyl}-phenylsulfanyl)-propionic Acid], for which the values for the EC50 at human PPARγ and on human PPARα were around 10000 nM and 1000 to 3000 nM, respectively.

Take `CCCCCCCn1nc(NCCCc2ccc(SC(C)(C)C(=O)OCC)cc2)c(=O)n(C)c1=O` [Example 124, Ethyl 2-{4-[3-(2-heptyl-4-methyl-3,5-dioxo-2,3,4,5-tetrahydro-[1,2,4]triazin-6-ylamino)propyl]-phenylsulfanyl}-2-methyl-propionate]: the results for the EC50 at human PPARγ and on human PPARα were above 10000 nM and 300 to 1000 nM, respectively.

The values are drawn from patent US7713971B2, “1,2,4-triazine derivatives, preparation and use thereof in human therapy” (Pierre Fabre Medicament, priority 2005, dated 2010).
